Data on 19 compounds can be found in patent US9399649B2, “Compounds for treating spinal muscular atrophy” (PTC Therapeutics Inc., priority 2012, dated 2016).

One series relates to Smn protein. Kind of series: Smn protein assay in cultured cells (SMN HTRF). In kind it is cell-based, human. Conditions: SMA patient fibroblast cells (GM03813), 48 hours; for maximum fold (Fold) increase of Smn protein: 7-point concentration data, relative to vehicle control; for EC1.5x for Smn protein expression: 7-point concentration curve, concentration producing 1.5 times Smn protein vs DMSO vehicle. In outline: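 SMA patient fibroblasts, 5,000 per well in DMEM-10% FBS, exposed 48 h at 37° C. to a 7-point, 3.16-fold compound series in triplicate. RIPA lysates read by SMN HTRF (665/620 nm, overnight at room temperature); ΔF over blank expressed as fold of vehicle.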
In general terms: TR-FRET usually uses a lanthanide donor and a delayed reading to cut background.

Series [1] concerns full length SMN2 minigene mRNA containing SMN2 exon 7. Kind of series: SMN2 minigene mRNA splicing RT-qPCR assay in cultured cells. Conditions: Homo sapiens, HEK293-H; HEK293H cells stably transfected with SMN2-A minigene, 24 hours, 7-point concentration curve; concentration giving 1.5-fold full length SMN2 mRNA vs vehicle; read-out: EC1.5x for production of full length SMN2 mRNA. It counts as cell-based, human. A digest of the protocol: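 HEK293H cells stably carrying SMN2-A minigene treated 24 h (37 °C) with compound, 7-point 3.16-fold dilution, duplicates. Multiplex RT-qPCR on lysate with exon 7/luciferase primers and exon 7–8 junction probe (minigene-specific). Full-length transcript normalised to GAPDH by modified ΔΔCt, expressed relative to vehicle-treated cells.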
Background: In qPCR the cycle at which signal appears reflects the starting amount.

One may read the melting point as the temperature, or range, at which the solid turns liquid. Regarding `O=c1oc(-c2ccccn2)cc2ccc(N3CCNCC3)cc12` [Cpd 1, 7-(piperazin-1-yl)-3-(pyridin-2-yl)-1H-isochromen-1-one], the melting point was 179 to 181 °C. Further, the “maximum fold (Fold) increase of Smn protein” value (“maximum fold (Fold) increase” below) with Smn protein was “** (a fold increase between >1.2 and ≦1.35 is indicated by two stars (**))”. Besides, the EC (1.5-fold) in series [1] is 1 to 3 µM.
`O=c1oc(-c2ccc3c(c2)OCO3)cc2ccc(N3CCNCC3)cc12` [Cpd 12, 3-(1,3-benzodioxol-5-yl)-7-(piperazin-1-yl)-1H-isochromen-1-one] displayed a melting point of 267 to 269 °C. Moreover, the “maximum fold (Fold) increase” value in the series on Smn protein is “** (a fold increase between >1.2 and ≦1.35 is indicated by two stars (**))”. Moreover, the EC (1.5-fold) in series [1] is 0.3 to 1 µM.
Compound `Cc1nc(Cl)cn2cc(-c3cc4ccc(N5CCN(C)[C@H](C)C5)cc4c(=O)o3)nc12` [Cpd 111, 3-(6-chloro-8-methylimidazo[1,2-a]pyrazin-2-yl)-7-[(3R)-3,4-dimethylpiperazin-1-yl]-1H-isochromen-1-one] had a melting point of 271 to 276 °C. In addition, in the series with Smn protein, the “EC1.5x for Smn protein expression” value was “*** (an EC1.5× between >0.3 nM and ≦1 nM is indicated by three stars (***))”; the “maximum fold (Fold) increase” value is on record as “***** (a fold increase >1.65 is indicated by five stars (*****))”. Also, the EC (1.5-fold) in series [1] lay in the range of 0.1 to 0.3 µM.
In the case of `Cc1cn2cc(-c3cc4ccc(C5CCN(C(C)C)CC5)cc4c(=O)o3)nc2c(C)n1` [Cpd 117, 3-(6,8-dimethylimidazo[1,2-a]pyrazin-2-yl)-7-[1-(propan-2-yl)piperidin-4-yl]-1H-isochromen-1-one], the melting point was 227 to 229 °C. In the series with Smn protein, the “EC1.5x for Smn protein expression” value was “*** (an EC1.5× between >0.3 nM and ≦1 nM is indicated by three stars (***))”; the “maximum fold (Fold) increase” value is “***** (a fold increase >1.65 is indicated by five stars (*****))”. Further, the EC (1.5-fold) in series [1] was no more than 0.1 µM.
For the compound `Cc1nc2ccc(-c3cc4ccc(N5CCNCC5)cc4c(=O)o3)cc2s1` [Cpd 103, 3-(2-methyl-1,3-benzothiazol-6-yl)-7-(piperazin-1-yl)-1H-isochromen-1-one], the melting point fell in the range of 271 to 276 °C. In the series with Smn protein, the “EC1.5x for Smn protein expression” value is recorded as “**** (an EC1.5×≦0.3 nM is indicated by four stars (****))”; the “maximum fold (Fold) increase” value is “**** (a fold increase between >1.5 and ≦1.65 is indicated by four stars (****))”. Also, the EC (1.5-fold) in series [1] is no more than 0.1 µM.
As for `CCN1CCN(c2ccc3cc(-c4cn5cc(C)nc(C)c5n4)oc(=O)c3c2)C[C@@H]1C` [Cpd 135, 3-(6,8-dimethylimidazo[1,2-a]pyrazin-2-yl)-7-[(3S)-4-ethyl-3-methylpiperazin-1-yl]-1H-isochromen-1-one], the melting point fell in the range of 238 to 243 °C. Also, in the series on Smn protein, the “EC1.5x for Smn protein expression” value is reported as “**** (an EC1.5×≦0.3 nM is indicated by four stars (****))” and the “maximum fold (Fold) increase” value is “***** (a fold increase >1.65 is indicated by five stars (*****))”. Further, the EC (1.5-fold) in series [1] was no more than 0.1 µM.
Turning to `C[C@H]1CN(c2ccc3cc(-c4nc5ccccc5s4)oc(=O)c3c2)CCN1` [Cpd 36, 3-(1,3-benzothiazol-2-yl)-7-[(3S)-3-methylpiperazin-1-yl]-1H-isochromen-1-one], the melting point was in the range of 236 to 238 °C. Also, in the series on Smn protein, the “maximum fold (Fold) increase” value is on record as “* (A maximum fold increase of ≦1.2 is indicated by one star (*))”. In series [1], the EC (1.5-fold) is 3 to 30 µM.
Consider `O=c1oc(-c2cn3ccsc3n2)cc2ccc(N3CCNCC3)cc12` [Cpd 28, 3-(imidazo[2,1-b][1,3]thiazol-6-yl)-7-(piperazin-1-yl)-1H-isochromen-1-one], for which the melting point is 224 to 226 °C. The “maximum fold (Fold) increase” value in the series with Smn protein was “*** (a fold increase between >1.35 and ≦1.5 is indicated by three stars (***))”. In series [1], the EC (1.5-fold) lay in the range of 0.3 to 1 µM.
On to `CN1CCN(c2ccc3cc(-c4cn5ccccc5n4)oc(=O)c3c2)CC1` [Cpd 27, 3-(imidazo[1,2-a]pyridin-2-yl)-7-(4-methylpiperazin-1-yl)-1H-isochromen-1-one], for which the melting point was in the range of 252 to 254 °C. In addition, the “maximum fold (Fold) increase” value in the series with Smn protein is “* (A maximum fold increase of ≦1.2 is indicated by one star (*))”. In addition, the EC (1.5-fold) in series [1] lay in the range of 3 to 30 µM.
In the case of `COCCN1CCN(c2ccc3cc(-c4cn5cc(C)nc(C)c5n4)oc(=O)c3c2)C[C@H]1C` [Cpd 145, 3-(6,8-dimethylimidazo[1,2-a]pyrazin-2-yl)-7-[(3R)-4-(2-methoxyethyl)-3-methylpiperazin-1-yl]-1H-isochromen-1-one], the melting point was 205 to 210 °C. In the series with Smn protein, the “EC1.5x for Smn protein expression” value is on record as “**** (an EC1.5×≦0.3 nM is indicated by four stars (****))” and the “maximum fold (Fold) increase” value was “***** (a fold increase >1.65 is indicated by five stars (*****))”. For the same compound, in series [1], the EC (1.5-fold) was no more than 0.1 µM.
Take `COc1ccccc1-c1cc2ccc(N3CCN[C@@H](C)C3)cc2c(=O)o1` [Cpd 32, 3-(2-methoxyphenyl)-7-[(3S)-3-methylpiperazin-1-yl]-1H-isochromen-1-one]: the melting point is 143 to 146 °C. Moreover, in the series on Smn protein, the “maximum fold (Fold) increase” value was “** (a fold increase between >1.2 and ≦1.35 is indicated by two stars (**))”. Moreover, the EC (1.5-fold) in series [1] lay in the range of 0.3 to 1 µM.
`C[C@H]1CN(c2ccc3cc(-c4cccc(O)c4)oc(=O)c3c2)CCN1` [Cpd 44, 3-(3-hydroxyphenyl)-7-[(3S)-3-methylpiperazin-1-yl]-1H-isochromen-1-one]: the melting point fell in the range of 256 to 258 °C. Further, in the series on Smn protein, the “maximum fold (Fold) increase” value is “** (a fold increase between >1.2 and ≦1.35 is indicated by two stars (**))”. The EC (1.5-fold) in series [1] fell in the range of 3 to 30 µM.
As to `COc1ccc(-c2cc3ccc(N4CCN[C@@H](C)C4)cc3c(=O)o2)cc1` [Cpd 31, 3-(4-methoxyphenyl)-7-[(3S)-3-methylpiperazin-1-yl]-1H-isochromen-1-one], the melting point lay within 129 to 131 °C. Further, in the series with Smn protein, the “EC1.5x for Smn protein expression” value is “** (an EC1.5× between >1 μM, and ≦3 nM is indicated by two stars (**))”; the “maximum fold (Fold) increase” value was “**** (a fold increase between >1.5 and ≦1.65 is indicated by four stars (****))”. Moreover, in series [1], the EC (1.5-fold) was no more than 0.1 µM.
For the compound `Cc1cn2cc(-c3cc4ccc(N5CCN[C@H](C)C5)cc4c(=O)o3)nc2c(C)n1` [Cpd 71, 3-(6,8-dimethylimidazo[1,2-a]pyrazin-2-yl)-7-[(3R)-3-methylpiperazin-1-yl]-1H-isochromen-1-one], the melting point was 331 to 333 °C. For the same compound, in the series on Smn protein, the “EC1.5x for Smn protein expression” value is listed as “**** (an EC1.5×≦0.3 nM is indicated by four stars (****))” and the “maximum fold (Fold) increase” value is reported as “***** (a fold increase >1.65 is indicated by five stars (*****))”. In addition, in series [1], the EC (1.5-fold) is no more than 0.1 µM.
`CCc1nc(C)cn2cc(-c3cc4ccc(C5=CCNCC5)cc4c(=O)o3)nc12` [Cpd 159, 3-(8-ethyl-6-methylimidazo[1,2-a]pyrazin-2-yl)-7-(1,2,3,6-tetrahydropyridin-4-yl)-1H-isochromen-1-one] came in with a melting point of 239 to 241 °C. Besides, in the series on Smn protein, the “EC1.5x for Smn protein expression” value is recorded as “**** (an EC1.5×≦0.3 nM is indicated by four stars (****))” and the “maximum fold (Fold) increase” value was “***** (a fold increase >1.65 is indicated by five stars (*****))”. Besides, the EC (1.5-fold) in series [1] was no more than 0.1 µM.
As for `CCCN1CCN(c2ccc3cc(-c4cn5cc(C)nc(C)c5n4)oc(=O)c3c2)CC1` [Cpd 82, 3-(6,8-dimethylimidazo[1,2-a]pyrazin-2-yl)-7-(4-propylpiperazin-1-yl)-1H-isochromen-1-one], the melting point was in the range of 244 to 246 °C. In the series with Smn protein, the “EC1.5x for Smn protein expression” value was “**** (an EC1.5×≦0.3 nM is indicated by four stars (****))” and the “maximum fold (Fold) increase” value is recorded as “***** (a fold increase >1.65 is indicated by five stars (*****))”. Also, the EC (1.5-fold) in series [1] is no more than 0.1 µM.
`CCCN1CC=C(c2ccc3cc(-c4cn5cc(C)nc(C)c5n4)oc(=O)c3c2)CC1` [Cpd 95, 3-(6,8-dimethylimidazo[1,2-a]pyrazin-2-yl)-7-(1-propyl-1,2,3,6-tetrahydropyridin-4-yl)-1H-isochromen-1-one] yielded a melting point of 226 to 228 °C. Further, in the series with Smn protein, the “EC1.5x for Smn protein expression” value is on record as “**** (an EC1.5×≦0.3 nM is indicated by four stars (****))” and the “maximum fold (Fold) increase” value is listed as “***** (a fold increase >1.65 is indicated by five stars (*****))”. For the same compound, in series [1], the EC (1.5-fold) is no more than 0.1 µM.
As to `Cc1nc(Cl)cn2cc(-c3cc4ccc(N5CCNCC5)cc4c(=O)o3)nc12` [Cpd 99, 3-(6-chloro-8-methylimidazo[1,2-a]pyrazin-2-yl)-7-(piperazin-1-yl)-1H-isochromen-1-one], the melting point was 221 to 226 °C. Further, in the series with Smn protein, the “EC1.5x for Smn protein expression” value is “*** (an EC1.5× between >0.3 nM and ≦1 nM is indicated by three stars (***))”; the “maximum fold (Fold) increase” value is “***** (a fold increase >1.65 is indicated by five stars (*****))”. The EC (1.5-fold) in series [1] is no more than 0.1 µM.
For `Cc1cn2cc(-c3cc4ccc(N5CCN(C(C)C)CC5)cc4c(=O)o3)nc2c(C)n1` [Cpd 74, 3-(6,8-dimethylimidazo[1,2-a]pyrazin-2-yl)-7-[4-(propan-2-yl)piperazin-1-yl]-1H-isochromen-1-one], the melting point was 260 to 262 °C. In addition, in the series with Smn protein, the “EC1.5x for Smn protein expression” value is given as “**** (an EC1.5×≦0.3 nM is indicated by four stars (****))” and the “maximum fold (Fold) increase” value is “***** (a fold increase >1.65 is indicated by five stars (*****))”. Moreover, the EC (1.5-fold) in series [1] is no more than 0.1 µM.
